Entries after “also recorded” stand apart in the source; their conditions may differ. Like-named read-outs stand apart in the source and are kept apart here.
Key:
[1] = Protocol: The pharmacokinetic study was performed using 163 male ICR mice. Four experimental groups with 40 animals in each were formed. Three intact mice were used as control animals. The animals of the first two experimental groups were intravenously injected with 0.25 and 0.50 mg/kg [^125I]-Az, respectively. The animals of the other two experimental groups were intramuscularly injected with 0.25 and 0.50 mg/kg [^125I]-Az, respectively. To estimate Az elimination rate, animal blood samples were taken from the orbital sinus 5, 15, 30, 60 min and 1, 2, 4 and 24 h after [^125I]-Az administration. The obtained blood samples were weighed. For each indicated time point, [^125I]-Az concentration was calculated as a mean value in blood samples of five animals. The radioactivity (cpm) in the blood samples was counted using a Wallac 1470 WIZARD® Gamma Counter (Perkin Elmer, Waltham, MA, USA). […] Radioactivity data (cpm) were re-calculated to the concentration of [^125I]-Az in the obtained blood samples. The specific pharmacokinetic parameters (AUC (0 → t), Cmax, T1/2) of [^125I]-Az were estimated.
[2] = tested on: male ICR mice; test: in vivo
Protocol: Az acute toxicity was estimated for its intravenous (iv) and intramuscular (im) administration to male ICR mice in a stepwise procedure.
For the iv route of administration, 20 mice were randomly divided in 5 groups of 4 animals each. The animals of each group received a single dose of Az (0.3, 0.4, 0.5, 0.6, or 0.7 mg/kg, respectively) injected into the lateral tail vein at a volume of 1 mL/kg. For the im route of administration, first two experimental groups of 3 animals each were formed. Az at doses of 0.75 and 1.0 mg/kg, respectively, was injected into the quadriceps muscle of the thigh (quadriceps femoris muscle) of two mouse hind limbs at a volume of 0.5 mL/kg to each muscle. Then, five experimental groups of 5 animals each were formed. Az was injected into the quadriceps muscle of the thigh (quadriceps femoris muscle) of the two hind limbs of male ICR mice at doses of 0.8, 0.775, 0.75, 0.725 and 0.7 mg/kg. The injection volume to each limb was 1 mL/kg. Further, neurotoxic manifestations were recorded in animals at 5, 10, 20, 30, 60 and 90 min and 24 h after administration using the functional observation battery, the number of death was counted as well.
For the iv and im route of administration, the median lethal dose (LD50) was calculated using a probit analysis. For the im route of administration, the maximum tolerated dose was determined.
Rocuronium was administered intramuscularly at doses of 0.13 mg/kg (n = 1), 0.1 mg/kg (n = 4) and 0.08 mg/kg (n = 4) in the triceps of the forelimbs of male ICR mice (8–9 weeks old). Control animals were injected with saline (n = 4). The volume of administration was 0.5 mL/kg in each limb.

[3] = tested on: hprt gene of CHO-k1 cells; details: n = 6
[4] = human; cited from earlier work
Text: Pharmacokinetics and pharmacodynamics are the empirical mathematical models that describe the time course of drug effect after administration. Pharmacokinetics describes the disposition of drug in the organism, while pharmacodynamics relates the drug effects to their concentration in the plasma and at the site of action. They can be used to predict the drug action at different doses and by this way to optimize the safe and effective use of the drug. Information from pharmacokinetic studies can be used in the design and analysis of data from other toxicity studies. Several pharmacokineti ...

[5] = tested on: human neuronal heteromeric α3-containing nAChRs (α3β2, α3β4, etc.); format: cell-based
[6] = tested on: mice; details: 0.1 mg/kg; cited from earlier work
[7] = tested on: mice; details: mouse, in vivo; cited from earlier work
[8] = target: T1, mouse muscle type α1β1εδ nAChR (Mus musculus, UniProt P02716+P04756+P20782); test: Calcium imaging of ACh-evoked [Ca2+]i rise in Neuro2a cells expressing muscle nAChR (Case12 sensor); format: cell-based
T1 construct: expressed in transfected cells; host or cells: mouse neuroblastoma Neuro2a, transient transfection (pRBG4 plasmids), co-expressed with Case12 calcium sensor
Protocol: (§1) Mouse neuroblastoma Neuro2a cells were purchased from the Russian collection of cell cultures (Institute of Cytology, Russian Academy of Sciences, Saint Petersburg, Russia). Cells were cultured in DMEM (Paneco, Moscow, Russia) supplemented with 10% FBS. They were sub-cultured the day before transfection and were plated at a density of 10,000 cells per well in a 96-well black plate. On the next day Neuro2a cells were transiently transfected with plasmids coding mouse muscle α1β1δε nAChR (pRBG4-vector) and a fluorescent calcium sensor Case12 (pCase12-cyto vector, Evrogen, Moscow, Russia) in a molar ratio of 2:1 following a lipofectamine transfection protocol (ThermoFisher Scientific, Waltham, MA, USA). Human α7 nAChR (α7 nAChR-pCEP4) was expressed accordingly with a co-expression of the human chaperone Ric-3 (Ric3-pCMV6-XL5, OriGene, Rockville, MD, USA) in a molar ratio 4:1. The transfected cells were grown at 37 °C in a CO2 incubator for 48–72 h, before performing the calcium imaging assay.
Calcium imaging procedure was performed as published earlier. Briefly, after removing the growth medium, the transfected Neuro2a cells and cultivated SH-SY5Y cells were washed with a buffer containing 140 mM NaCl, 2 mM CaCl2, 2.8 mM KCl, 4 mM MgCl2, 20 mM HEPES, 10 mM glucose; pH 7.4. Neuro2a cells expressing muscle nAChR and the protein calcium sensor Case12 were proceeded directly, while SH-SY5Y cells expressing human α3-containing nAChRs natively were loaded with a fluorescent dye Fluo-4, AM (1.824 μM, ThermoFisher Scientific, Waltham, MA, USA) and a water-soluble probenecid (1.25 mM, ThermoFisher Scientific, Waltham, MA, USA) for 30 min at 37 °C and then were kept for 30 min at room temperature according to the manufacturer’s protocol.
To detect the human α7 nAChR-mediated calcium response, transfected Neuro2a cells were incubated with its positive allosteric modulator PNU120596 (10 μM, Tocris Bioscience, Bristol, UK) for 20 min at room temperature before acetylcholine (Sigma-Aldrich Chemie Gmbh, Munich, Germany) addition. To assess mouse muscle or human α3-containing nAChRs this step was skipped. […]
(§2) The plates were transferred to the multimodal microplate reader Hidex Sence (Hidex, Turku, Finland) where the cells were excited by light of 485 nm wavelength and emitted fluorescence was detected at 535 ± 10 nm. Fluorescence was recorded every 2 s for three minutes following agonist addition. Responses were measured as peak intensity minus basal fluorescence level and were expressed as a percentage of the maximal response obtained to agonist. Data files were analyzed using Hidex Sence software (Hidex, Turku, Finland) and OriginPro 7.5 software (OriginLab, Northampton, MA, USA, for statistical analysis).

[9] = target: T2, human neuronal homopentameric α7 nAChR (Homo sapiens, UniProt P36544); test: Calcium imaging of ACh-evoked [Ca2+]i rise in Neuro2a cells expressing α7 nAChR; format: cell-based; details: 10 μM ACh (EC50); transfected Neuro2a cells, PNU120596 10 μM; 15 min preincubation; mean ± SEM, 4 independent experiments; read-out: IC50, inhibition of ACh-evoked calcium response of α7 nAChR
T2 construct: expressed in transfected cells; host or cells: mouse neuroblastoma Neuro2a, transient transfection (α7 nAChR-pCEP4) with human Ric-3 (Ric3-pCMV6-XL5, OriGene)
Protocol: as §1, with “Human α7 nAChR (α7 nAChR-pCEP4) was expressed accordingly with a co-expression of the human chaperone Ric-3 (Ric3-pCMV6-XL5, OriGene, Rockville, MD, USA) in a molar ratio 4:1. The transfected cells were grown at 37 °C in a CO2 incubator for 48–72 h, before performing the calcium imaging assay.” left out
as §2

[10] = tested on: male ICR mice; test: Forelimb grip strength test (muscle relaxant effect) after intramuscular administration; format: in vivo, mouse
Protocol: 40 male ICR mice were divided equally into four groups: one control and three experimental groups. Animals of the control and experimental groups were treated with normal saline and with Az at doses of 0.03, 0.1 and 0.3 mg/kg, respectively. In addition 6 mice were treated with Az at dose of 0.01 mg/kg. The corresponding solutions were injected into the triceps muscles of the mouse forelimbs at a volume of 0.5 mL/kg per each limb. For all animals their basic forelimb grip strength was recorded before the substance administration with a 1027 grip strength meter (Columbus Instruments, Columbus, OH, USA). Further, their grip strength was measured 5, 10, 15, 20, 30, 60, 90 min after the Az (or normal saline) im administration.
Rocuronium was administered intramuscularly as described for the measurement of acute toxicity (Section 5.4.1). Muscle strength was assessed prior to administration of the substance and then 1, 2, 3, 4, 5 min after administration.

[11] = tested on: rats; details: iv injection to rats; cited from earlier work
Protocol: Acute toxicity of Az was determined using different administration ways: intraperitoneal (ip), intramuscular (im) and intravenous (iv) injections.

[12] = tested on: cultured human peripheral blood lymphocytes; details: concentrations without significant cytotoxic effect; cited from earlier work
Text: Mutagenicity, that is the induction of permanent transmissible changes in the amount or structure of the genetic material of cells or organisms, is very important parameter of drug candidate. Highly mutagenic compounds can hardly be considered for drug development, therefore mutagenicity studies are a necessary phase in preclinical evaluations.

[13] = intramuscular administration, 0.25 and 0.5 mg/kg, male ICR mice

T1 sequence (P09690 24-501): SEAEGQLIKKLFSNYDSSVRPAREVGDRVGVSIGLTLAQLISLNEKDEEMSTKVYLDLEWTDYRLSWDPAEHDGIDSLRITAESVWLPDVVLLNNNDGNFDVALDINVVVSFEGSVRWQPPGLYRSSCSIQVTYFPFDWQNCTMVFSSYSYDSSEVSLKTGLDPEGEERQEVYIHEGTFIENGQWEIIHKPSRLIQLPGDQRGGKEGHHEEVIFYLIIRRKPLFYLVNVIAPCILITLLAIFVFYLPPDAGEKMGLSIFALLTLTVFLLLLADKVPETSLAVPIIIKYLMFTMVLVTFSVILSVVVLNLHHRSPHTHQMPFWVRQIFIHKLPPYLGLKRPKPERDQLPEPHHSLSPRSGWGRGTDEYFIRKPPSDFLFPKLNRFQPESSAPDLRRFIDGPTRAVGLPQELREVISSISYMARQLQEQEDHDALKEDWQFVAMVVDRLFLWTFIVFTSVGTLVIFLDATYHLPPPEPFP
T1 sequence (P04756 21-457): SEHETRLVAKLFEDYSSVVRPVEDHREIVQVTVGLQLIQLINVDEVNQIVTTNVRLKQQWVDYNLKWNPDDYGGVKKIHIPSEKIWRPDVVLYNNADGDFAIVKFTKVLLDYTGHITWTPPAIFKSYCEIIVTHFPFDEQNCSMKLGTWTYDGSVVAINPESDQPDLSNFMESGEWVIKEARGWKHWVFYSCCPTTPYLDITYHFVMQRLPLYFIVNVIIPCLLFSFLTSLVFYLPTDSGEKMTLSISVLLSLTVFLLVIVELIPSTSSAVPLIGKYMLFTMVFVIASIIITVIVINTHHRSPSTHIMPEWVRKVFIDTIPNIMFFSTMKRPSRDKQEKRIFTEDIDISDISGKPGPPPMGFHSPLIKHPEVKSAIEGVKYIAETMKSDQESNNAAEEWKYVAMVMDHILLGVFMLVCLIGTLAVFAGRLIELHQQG
T1 sequence (P02716 25-520): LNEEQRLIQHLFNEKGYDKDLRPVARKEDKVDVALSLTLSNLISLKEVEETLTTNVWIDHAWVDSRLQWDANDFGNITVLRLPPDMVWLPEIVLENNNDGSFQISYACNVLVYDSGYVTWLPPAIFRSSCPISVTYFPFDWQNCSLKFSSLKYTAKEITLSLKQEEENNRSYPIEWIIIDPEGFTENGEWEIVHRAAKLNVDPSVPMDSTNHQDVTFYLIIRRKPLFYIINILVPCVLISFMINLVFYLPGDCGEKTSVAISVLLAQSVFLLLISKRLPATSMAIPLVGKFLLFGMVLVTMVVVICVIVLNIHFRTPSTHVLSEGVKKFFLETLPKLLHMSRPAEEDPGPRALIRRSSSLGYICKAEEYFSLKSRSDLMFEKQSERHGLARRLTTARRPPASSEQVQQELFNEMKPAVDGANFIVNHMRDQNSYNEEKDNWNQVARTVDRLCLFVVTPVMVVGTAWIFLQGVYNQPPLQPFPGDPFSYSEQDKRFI
T1 sequence (P20782 21-493): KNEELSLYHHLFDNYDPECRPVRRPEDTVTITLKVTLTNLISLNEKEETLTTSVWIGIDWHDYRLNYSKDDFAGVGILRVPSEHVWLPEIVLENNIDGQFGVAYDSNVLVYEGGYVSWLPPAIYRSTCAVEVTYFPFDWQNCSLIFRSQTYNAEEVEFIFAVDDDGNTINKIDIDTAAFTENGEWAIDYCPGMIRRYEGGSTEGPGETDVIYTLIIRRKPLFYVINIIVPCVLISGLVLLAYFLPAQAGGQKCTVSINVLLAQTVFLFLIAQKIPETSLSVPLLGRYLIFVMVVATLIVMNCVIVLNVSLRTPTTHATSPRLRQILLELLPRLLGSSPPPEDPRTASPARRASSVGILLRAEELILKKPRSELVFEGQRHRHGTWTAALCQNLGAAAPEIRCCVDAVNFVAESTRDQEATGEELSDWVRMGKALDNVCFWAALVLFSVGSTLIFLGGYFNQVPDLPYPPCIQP
T2 sequence (P36544 23-502): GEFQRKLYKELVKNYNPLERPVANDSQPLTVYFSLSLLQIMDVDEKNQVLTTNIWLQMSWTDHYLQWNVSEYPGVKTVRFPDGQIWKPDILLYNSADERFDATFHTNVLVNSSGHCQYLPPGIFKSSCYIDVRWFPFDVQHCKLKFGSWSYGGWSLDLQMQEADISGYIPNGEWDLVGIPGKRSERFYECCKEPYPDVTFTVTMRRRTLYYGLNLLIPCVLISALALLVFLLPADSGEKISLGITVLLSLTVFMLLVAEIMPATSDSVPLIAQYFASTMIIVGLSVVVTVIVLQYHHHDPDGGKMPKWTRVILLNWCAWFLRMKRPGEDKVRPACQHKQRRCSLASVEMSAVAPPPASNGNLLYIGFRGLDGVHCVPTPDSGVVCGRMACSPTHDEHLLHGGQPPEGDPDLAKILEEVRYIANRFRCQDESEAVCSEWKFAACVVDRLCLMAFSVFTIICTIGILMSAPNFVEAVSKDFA

For diiodoazemiopsin [[^125I]-Az], the “removal from the free blood flow” value ([1]; during 24 h, both iv and im administration) was “almost completely removed”, the “half-life T1/2” value [1, 13] was 20 to 40 min and the “time within which maximum concentration (Cmax) was achieved” value [1, 13] was “five”. The “excretion half-life (T1/2)” value ([1]; single intravenous injection, 0.25 and 0.5 mg/kg, male ICR mice) was 15 to 20 min and the lethality ([2]; [125I]-Az single iv and im 0.25 and 0.50 mg/kg, male ICR mice) was “No lethality”.

In the case of `Cc1ccc2cc3c(ccc4ccccc43)c3c2c1CC3` [methylcholanthrene, reference compound], the “frequency of mutations in the hprt gene” value ([3]; positive control 2.5 and 5 μg/mL, presence of S9) is reported as 35.7–45.7 × 10^−6.

For `COc1ccc(CC2c3cc(OC)c(OC)cc3CC[N+]2(C)CCC(=O)OCCCCCOC(=O)CC[N+]2(C)CCc3cc(OC)c(OC)cc3C2Cc2ccc(OC)c(OC)c2)cc1OC` (stereo not drawn) [atracurium], the excretion half-life [4] is given as 17 min.

In the case of `CN1CCC[C@H]1c1cccnc1` [nicotine, reference compound], the EC50 ([5]; read-out: EC50 of nicotine-induced calcium responses) is reported as 22 ± 2 µM.

For `CCN(N=O)C(N)=O` [ethylnitrosurea, reference compound], the “frequency of mutations in the hprt gene” value ([3]; positive control 6.25 and 12.5 μg/mL, absence of S9) was 33.9–39.5 × 10^−6.

In the case of `CC(=O)O[C@H]1C[C@@H]2CC[C@@H]3[C@H](CC[C@@]4(C)[C@H]3C[C@H]([N+]3(C)CCCCC3)[C@@H]4OC(C)=O)[C@@]2(C)C[C@@H]1[N+]1(C)CCCCC1` [pancuronium], the “decrease of grip strength” value [6] is listed as 24.1%.

Work on α-conotoxin MII [reference compound] yielded an IC50 ([5]; read-out: IC50, inhibition of calcium responses induced by 100 µM nicotine) of 60 ± 4 nM.

In the case of `CC(=O)O[C@H]1C[C@@H]2CC[C@@H]3[C@H](CC[C@@]4(C)[C@H]3C[C@H]([N+]3(C)CCCCC3)[C@@H]4OC(C)=O)[C@@]2(C)C[C@@H]1N1CCCCC1` [vecuronium], the Cmax [4] is listed as “about 1 µg/mL” and the LD50 [7] is listed as 50 µg/kg.

In the case of `C=CC[N+]1([C@H]2C[C@H]3[C@@H]4CC[C@H]5C[C@H](O)[C@@H](N6CCOCC6)C[C@]5(C)[C@H]4CC[C@]3(C)[C@H]2OC(C)=O)CCCC1` [rocuronium, Rocuronium Bromide, reference compound], the IC50 ([8]; 30 μM ACh (EC100), transfected Neuro2a cells, Case12 sensor, 15 min preincubation, mean ± SEM, 4 independent experiments, read-out: IC50, inhibition of ACh-evoked calcium response of muscle nAChR) is reported as 257 ± 95.5 nM, the “selectivity to muscle receptor versus α7 nAChR” value ([8]; ratio of calcium imaging IC50 values α7 / muscle) is reported as “about 100 times” and the IC50 [9] is reported as 25.7 ± 4.5 µM. The “inhibition of Nic induced responses” value [5] was “about 60%”, the “effect on grip strength compared to control” value ([10]; rocuronium 0.08 mg/kg im, n = 4) was “no statistically significant difference; also recorded: no statistically significant relaxing effect” and the grip strength ([10]; rocuronium 0.13 mg/kg im, after 60 s, n = 1) was 0 kg. For the same compound, the “time after injection at which effect disappeared” value ([10]; rocuronium im) was no more than 5 min, the “visible signs of toxicity” value ([2]; rocuronium im 0.08 mg/kg) was “did not induce visible signs of toxicity” and the “time after administration at which toxicity signs disappeared” value ([2]; rocuronium im 0.1 mg/kg) was 3 to 4 min. For the same compound, the “time of first signs of intoxication after injection” value ([2]; rocuronium im 0.13 mg/kg) was 30 s, the “time of death after injection” value ([2]; rocuronium im 0.13 mg/kg, n = 1) was 11.5 min and the lethality ([2]; rocuronium im 0.08 and 0.1 mg/kg, n = 4 each) was “did not cause the death of animals”. The Cmax [4] was 27 µg/kg, the excretion half-life [4] was 71 min and the LD50 [11] was “about 0.3 mg/kg”. The genotoxicity [12] was “capable of causing genotoxicity via clastogenic effects”.

For `COc1cc2c3cc1Oc1cc(ccc1O)C[C@@H]1c4c(cc(OC)c(O)c4Oc4ccc(cc4)C[C@@H]3N(C)CC2)CC[N+]1(C)C` [(+)-tubocurarine], the LD50 [7] is given as 110 µg/kg.

From publication PMC5793121 (Toxins, 2018)
